Results as given in US20240067693A1, “POLYPEPTIDES AND USES THEREOF” (MEDIMMUNE LIMITED, priority 2020, published 2024).
Numbered stars: 1 amine (or outer) side, 2 acyl side, 3 side chain; on linkers, the order of the positions; unused ones are H or OH. Bridge positions count the residues as written; N and C are the ends. Square brackets hold non-standard residues; d marks the D form. Side chains are listed from the residue outwards. Peptide text beside a SMILES is read from it. * marks the point of attachment. C18 diacid = O=C(O)CCCCCCCCCCCCCCCCC(=O)*; γGlu = O=C(O)[C@H](CCC(=O)[*:2])N[*:1]; αMeF = C[C@](N)(Cc1ccccc1)C(=O)O; Aib = CC(C)(N)C(=O)O

Columns and labels:
[1] = Thioflavin T fibrillation assay; type: physicochemical; details: ThT fibrillation assay; peptide 1 mg/mL in 25 mM sodium acetate buffer pH 4.0; 6 days at 37 °C with shaking; >144 h = no increase
Summary of the method: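 Peptides at 1 mg/mL in 25 mM sodium acetate pH 4.0 with ThT (from 0.25 mM stock), incubated 6 days at 37 °C with intermittent orbital shaking at 500–750 rpm. Fluorescence (ex 444/em 480 nm) read every 30 min; value is average time to a rise in baseline-corrected signal.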

[2] = test system: lean rats; experiment: Rat acute food intake study; type: in vivo; details: lean male Sprague Dawley rats, 20 nmol/kg subcutaneously
Summary of the method: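 Male Sprague Dawley rats (n=7/group), fasted 6 h, received 20 nmol/kg test compound or 60 nmol/kg pramlintide subcutaneously 30 min before food return at dark onset. Food intake recorded automatically in home cages over 3 days, binned hourly and analysed as cumulative dark-period intake; body weight taken daily.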

[3] = molecular target: T1, rat calcitonin receptor (rat CTR) (Rattus norvegicus, UniProt P32214); experiment: cAMP production in HEK cells with stable recombinant expression of rat calcitonin receptor (rat CTR); type: cell-based; details: assay buffer with 0.1% BSA
T1 construct: expressed in transfected cells
T1 sequence (P32214 25-516): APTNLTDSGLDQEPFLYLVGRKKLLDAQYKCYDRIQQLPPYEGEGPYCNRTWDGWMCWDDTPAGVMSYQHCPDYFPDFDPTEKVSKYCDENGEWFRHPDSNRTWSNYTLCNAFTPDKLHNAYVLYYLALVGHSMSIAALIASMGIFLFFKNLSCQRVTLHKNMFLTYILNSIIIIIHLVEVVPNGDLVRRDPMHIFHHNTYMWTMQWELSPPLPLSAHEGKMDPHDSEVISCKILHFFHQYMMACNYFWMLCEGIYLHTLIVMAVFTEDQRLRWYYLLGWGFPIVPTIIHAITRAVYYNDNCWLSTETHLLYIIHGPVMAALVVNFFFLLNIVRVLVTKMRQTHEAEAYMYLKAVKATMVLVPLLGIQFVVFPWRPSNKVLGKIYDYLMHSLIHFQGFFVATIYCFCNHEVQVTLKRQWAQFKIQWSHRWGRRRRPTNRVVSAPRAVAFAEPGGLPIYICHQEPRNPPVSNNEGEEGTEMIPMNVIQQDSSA
Summary of the method: (§1)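 Receptor-expressing cells (human receptors in 1321N1, rat receptors in HEK) incubated 30 min at room temperature with peptide in HBSS/HEPES pH 7.4, 0.1% BSA, 0.5 mM IBMX. cAMP read by HTRF; EC50 from 4-parameter fit as % of maximal amylin or calcitonin response.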

[4] = molecular target: T2, rat amylin receptor (calcitonin receptor co-expressed with receptor activity modifying protein, RAMP3) (Rat AMYR3) (Rattus norvegicus, UniProt P32214+Q9JJ73); experiment: cAMP production in HEK cells with stable recombinant expression of rat amylin receptor (Rat AMYR3); type: cell-based; details: assay buffer with 0.1% BSA
T2 construct: expressed in transfected cells
T2 sequence (P32214 25-516): T1 sequence (P32214 25-516)
T2 sequence (Q9JJ73 23-147 partner): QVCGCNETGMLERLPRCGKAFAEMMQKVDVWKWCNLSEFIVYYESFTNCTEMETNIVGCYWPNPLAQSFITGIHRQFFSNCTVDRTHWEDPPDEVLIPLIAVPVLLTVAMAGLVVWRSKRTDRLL
Summary of the method: as §1

Row | Structure (SMILES) | Time taken to detect increase in fluorescence intensity [1] [h] | Cummulative food intake (% vehicle treated intake) At 12 h [2] [% vehicle treated intake] | Cummulative food intake (% vehicle treated intake) At 24 h [2] [% vehicle treated intake] | Cummulative food intake (% vehicle treated intake) At 48 h [2] [% vehicle treated intake] | EC50 [3] [pM] | EC50 [4] [pM]
1 | CC[C@H](C)[C@H](NC(=O)[C@@H]1CCCN1C(=O)CNC(=O)[C@](C)(Cc1ccccc1)NC(=O)[C@H](CC(N)=O)NC(=O)[C@H](CC(N)=O)NC(=O)[C@H](CO)NC(=O)[C@H](CO)NC(=O)[C@H](Cc1c[nH]cn1)NC(=O)[C@H](CCCNC(=N)N)NC(=O)[C@H](CC(C)C)NC(=O)[C@H](Cc1ccccc1)NC(=O)[C@H](CC(N)=O)NC(=O)[C@H](C)NC(=O)[C@H](CC(C)C)NC(=O)[C@H](CCCNC(=N)N)NC(=O)[C@H](CCC(N)=O)NC(=O)[C@@H](NC(=O)[C@H](C)NC(=O)[C@@H]1CSSC[C@H](NC(=O)[C@@H](N)CCCCNC(=O)CC[C@H](NC(=O)CC[C@H](NC(=O)CCCCCCCCCCCCCCCCC(=O)O)C(=O)O)C(=O)O)C(=O)N[C@@H](CC(N)=O)C(=O)N[C@@H]([C@@H](C)O)C(=O)N[C@@H](C)C(=O)N[C@@H]([C@@H](C)O)C(=O)N1)[C@@H](C)O)C(=O)N[C@@H](CC(C)C)C(=O)N1CCC[C@H]1C(=O)N1CCC[C@H]1C(=O)N[C@H](C(=O)N[C@@H](CCC(=O)O)C(=O)N[C@H](C(=O)NCC(=O)N[C@@H](CO)C(=O)N[C@@H](CC(N)=O)C(=O)N[C@H](C(=O)N[C@@H](Cc1ccc(O)cc1)C(N)=O)[C@@H](C)O)C(C)C)[C@@H](C)O [Peptide 18, K(γE-γE-C18diacid)[CNTATC]ATQRLANFLRHSSNN(αMePhe)GPILPPTEVGSNTY-amide] (H-K([γGlu-γGlu-C18 diacid])CNTATCATQRLANFLRHSSNN[αMeF]GPILPPTEVGSNTY-NH2; disulfide 2-7; N-terminus assumed) | >144 | 45.8 | 46.9 | 68.8 | 3090 | 16.5
2 | CC[C@H](C)[C@H](NC(=O)[C@@H]1CCCN1C(=O)CNC(=O)[C@](C)(Cc1ccccc1)NC(=O)[C@H](CC(N)=O)NC(=O)[C@H](CC(N)=O)NC(=O)[C@H](CO)NC(=O)[C@H](CO)NC(=O)[C@H](Cc1c[nH]cn1)NC(=O)[C@H](CCCNC(=N)N)NC(=O)[C@H](CC(C)C)NC(=O)[C@H](Cc1ccccc1)NC(=O)[C@H](CC(N)=O)NC(=O)[C@H](C)NC(=O)[C@H](CC(C)C)NC(=O)[C@H](CCCNC(=N)N)NC(=O)[C@H](CCC(N)=O)NC(=O)[C@@H](NC(=O)[C@H](C)NC(=O)[C@@H]1CSSC[C@H](NC(=O)[C@@H](N)CCCCNC(=O)CC[C@H](NC(=O)CC[C@H](NC(=O)CCCCCCCCCCCCCCCCC(=O)O)C(=O)O)C(=O)O)C(=O)N[C@@H](CC(N)=O)C(=O)N[C@@H]([C@@H](C)O)C(=O)N[C@@H](C)C(=O)N[C@@H]([C@@H](C)O)C(=O)N1)[C@@H](C)O)C(=O)N[C@@H](CC(C)C)C(=O)N1CCC[C@H]1C(=O)N1CCC[C@H]1C(=O)N[C@H](C(=O)N[C@@H](CC(N)=O)C(=O)N[C@H](C(=O)NCC(=O)N[C@@H](CO)C(=O)N[C@@H](CC(N)=O)C(=O)N[C@H](C(=O)N[C@@H](Cc1ccc(O)cc1)C(N)=O)[C@@H](C)O)C(C)C)[C@@H](C)O [Peptide 20, K(γE-γE-C18diacid)[CNTATC]ATQRLANFLRHSSNN(αMePhe)GPILPPTNVGSNTY-amide] (H-K([γGlu-γGlu-C18 diacid])CNTATCATQRLANFLRHSSNN[αMeF]GPILPPTNVGSNTY-NH2; disulfide 2-7; N-terminus assumed) | >144 | 27 | 26.2 | 49.7 | 1850 | 10.4
3 | CC[C@H](C)[C@H](NC(=O)[C@@H]1CCCN1C(=O)CNC(=O)[C@](C)(Cc1ccccc1)NC(=O)[C@H](CC(N)=O)NC(=O)[C@H](CC(N)=O)NC(=O)[C@H](CO)NC(=O)[C@H](CO)NC(=O)[C@H](Cc1c[nH]cn1)NC(=O)[C@@H](NC(=O)[C@H](CC(C)C)NC(=O)[C@H](Cc1ccccc1)NC(=O)[C@H](CC(N)=O)NC(=O)[C@H](C)NC(=O)[C@H](CC(C)C)NC(=O)[C@H](CCCNC(=N)N)NC(=O)[C@H](CCC(N)=O)NC(=O)[C@@H](NC(=O)[C@H](C)NC(=O)[C@@H]1CSSC[C@H](NC(=O)[C@@H](N)CCCCNC(=O)CC[C@H](NC(=O)CC[C@H](NC(=O)CCCCCCCCCCCCCCCCC(=O)O)C(=O)O)C(=O)O)C(=O)N[C@@H](CC(N)=O)C(=O)N[C@@H]([C@@H](C)O)C(=O)N[C@@H](C)C(=O)N[C@@H]([C@@H](C)O)C(=O)N1)[C@@H](C)O)C(C)C)C(=O)N[C@@H](CC(C)C)C(=O)N1CCC[C@H]1C(=O)N1CCC[C@H]1C(=O)N[C@H](C(=O)N[C@@H](CCCNC(=N)N)C(=O)N[C@H](C(=O)NCC(=O)N[C@@H](CO)C(=O)N[C@@H](CC(N)=O)C(=O)N[C@H](C(=O)N[C@@H](Cc1ccc(O)cc1)C(N)=O)[C@@H](C)O)C(C)C)[C@@H](C)O [Peptide 24, K(γE-γE-C18diacid)[CNTATC]ATQRLANFLVHSSNN(αMePhe)GPILPPTRVGSNTY-amide] (H-K([γGlu-γGlu-C18 diacid])CNTATCATQRLANFLVHSSNN[αMeF]GPILPPTRVGSNTY-NH2; disulfide 2-7; N-terminus assumed) | >144 | 18.7 | 19.4 | 40.6 | 755 | 17.7
4 | CC[C@H](C)[C@H](NC(=O)[C@@H]1CCCN1C(=O)CNC(=O)[C@H](Cc1ccccc1)NC(=O)[C@H](CC(N)=O)NC(=O)C(C)(C)NC(=O)[C@H](CO)NC(=O)[C@H](CO)NC(=O)[C@H](Cc1c[nH]cn1)NC(=O)[C@@H](NC(=O)[C@H](CC(C)C)NC(=O)[C@H](Cc1ccccc1)NC(=O)[C@H](CC(N)=O)NC(=O)[C@H](C)NC(=O)[C@H](CC(C)C)NC(=O)[C@H](CCCNC(=N)N)NC(=O)[C@H](CCC(N)=O)NC(=O)[C@@H](NC(=O)[C@H](C)NC(=O)[C@@H]1CSSC[C@H](NC(=O)[C@H](CCCCN)NC(=O)[C@@H](N)CCCCNC(=O)CC[C@H](NC(=O)CCCCCCCCCCCCCCCCC(=O)O)C(=O)O)C(=O)N[C@@H](CC(N)=O)C(=O)N[C@@H]([C@@H](C)O)C(=O)N[C@@H](C)C(=O)N[C@@H]([C@@H](C)O)C(=O)N1)[C@@H](C)O)C(C)C)C(=O)N[C@@H](CC(C)C)C(=O)N1CCC[C@H]1C(=O)N1CCC[C@H]1C(=O)N[C@H](C(=O)N[C@@H](Cc1c[nH]cn1)C(=O)N[C@H](C(=O)NCC(=O)N[C@@H](CO)C(=O)N[C@@H](CC(N)=O)C(=O)N[C@H](C(=O)N[C@@H](Cc1ccc(O)cc1)C(N)=O)[C@@H](C)O)C(C)C)[C@@H](C)O [Peptide 40, K(γE-C18diacid)K[CNTATC]ATQRLANFLVHSS(Aib)NFGPILPPTHVGSNTY-amide] (H-K([γGlu-C18 diacid])KCNTATCATQRLANFLVHSS[Aib]NFGPILPPTHVGSNTY-NH2; disulfide 3-8) | >144 | 60.7 | 51.8 | 72.4 | 782 | 12
